Measured values as given in patent US20250059159A1, “PLPRO INHIBITORS” (SHANGHAI SYNERGY PHARMACEUTICAL SCIENCES CO., LTD., priority 2021, published 2025).

Target: SARS-CoV-2 PLpro (Severe acute respiratory syndrome coronavirus 2 (2019-nCoV) (SARS-CoV-2), UniProt P0DTD1)
Experiment: PLpro enzymatic inhibition assay (IC50 value determination)
Type: biochemical
Conditions: 60 min preincubation for covalent inhibitors, 10 min for non-covalent, read-out: Inhibition of SARS-CoV-2 PLpro IC50 range

Structure (SMILES)	IC50 [nM]
C#CCNC(=O)CNC(=O)CN(C1CCN(C(C)c2cccc(Cl)c2Cl)CC1)S(C)(=O)=O (stereo not drawn) [Compound 94, 2-(N-(1-(1-(2,3-dichlorophenyl)ethyl)piperidin-4-yl)methylsulfonamido)-N-(2-oxo-2-(prop-2-yn-1-ylamino)ethyl)acetamide]	100 to 1000
CC(c1cccc2ccccc12)N1CCC(N(CC(=O)NCC(=O)NC/C=C/S(C)(=O)=O)C(=O)C2CCC2)CC1 (stereo not drawn) [Compound 9, (E)-N-(2-((2-((3-(methylsulfonyl)allyl)amino)-2-oxoethyl)amino)-2-oxoethyl)-N-(1-(1-(naphthalen-1-yl)ethyl)piperidin-4-yl)cyclobutanecarboxamide]	100 to 1000
C#CCNC(=O)CNC(=O)CN(C1CCN([C@H](C)c2cccc3ccccc23)CC1)S(=O)(=O)N1CCC(C(=O)OC)C1 (stereo partly drawn) [Compound 134, methyl 1-(N-(1-((R)-1-(naphthalen-1-yl)ethyl)piperidin-4-yl)-N-(2-oxo-2-((2-oxo-2-(prop-2-yn-1-ylamino)ethyl)amino)ethyl)sulfamoyl)pyrrolidine-3-carboxylate]	< 100
C#CCNC(=O)CNC(=O)CN(C1CCN(C(C)c2cccc(Br)c2)CC1)S(C)(=O)=O (stereo not drawn) [Compound 108, 2-(N-(1-(1-(3-bromophenyl)ethyl)piperidin-4-yl)methylsulfonamido)-N-(2-oxo-2-(prop-2-yn-1-ylamino)ethyl)acetamide]	100 to 1000
C=CC(=O)NNC(=O)CN(C1CCN(C(C)c2cccc3ccccc23)CC1)S(C)(=O)=O (stereo not drawn) [Compound 168, N-(2-(2-acryloylhydrazineyl)-2-oxoethyl)-N-(1-(1-(naphthalen-1-yl)ethyl)piperidin-4-yl)methanesulfonamide]	1000 to 10000
C#CCNC(=O)CNC(=O)CN(C1CCN(C(C)c2cccc3ccccc23)CC1)S(=O)(=O)N1CCN(CC(=O)O)CC1 (stereo not drawn) [Compound 117]	1000 to 10000
COC(=O)/C=C/CNC(=O)CNC(=O)CN(C(=O)C1CCCC1)C1CCN([C@H](C)c2cccc3ccccc23)CC1 [Compound 10, methyl (R,E)-4-(2-(2-(N-(1-(1-(naphthalen-1-yl)ethyl)piperidin-4-yl)cyclopentanecarboxamido)acetamido)acetamido)but-2-enoate]	100 to 1000
C#CC(C)NC(=O)CNC(=O)CN(C1CCN([C@H](C)c2cccc3ccccc23)CC1)S(C)(=O)=O (stereo partly drawn) [Compound 128, N-(but-3-yn-2-yl)-2-(2-(N-(1-((R)-1-(naphthalen-1-yl)ethyl)piperidin-4-yl)methylsulfonamido)acetamido)acetamide]	1000 to 10000
C#CCNC(=O)CNC(=O)CN(C1CCN(C(C)c2ccc(OC)c(Cl)c2)CC1)S(C)(=O)=O (stereo not drawn) [Compound 121, 2-(N-(1-(1-(3-chloro-4-methoxyphenyl)ethyl)piperidin-4-yl)methylsulfonamido)-N-(2-oxo-2-(prop-2-yn-1-ylamino)ethyl)acetamide]	< 100
COC(=O)/C=C/CNC(=O)CNC(=O)CN(C(=O)Cc1ccc2c(c1)OCO2)C1CCN([C@H](C)c2cccc3ccccc23)CC1 [Compound 2, methyl (R,E)-4-(2-(2-(2-(benzo[d][1,3]dioxol-5-yl)-N-(1-(1-(naphthalen-1-yl)ethyl)piperidin-4-yl)acetamido)acetamido)acetamido)but-2-enoate]	100 to 1000
COC(=O)/C=C/CNC(=O)CNC(=O)[C@@H](C)NC1CCN([C@H](C)c2cccc3ccccc23)CC1 [Compound 28, methyl (E)-4-(2-((R)-2-((1-((R)-1-(naphthalen-1-yl)ethyl)piperidin-4-yl)amino)propanamido)acetamido)but-2-enoate]	1000 to 10000
[2H]C([2H])(C#C)NC(=O)CNC(=O)CN(C1CCN(C(C)c2cccc3ccccc23)CC1)S(C)(=O)=O (stereo not drawn) [Compound 153, 2-(N-(1-(1-(naphthalen-1-yl)ethyl)piperidin-4-yl)methylsulfonamido)-N-(2-oxo-2-((prop-2-yn-1-yl-1,l-d2)amino)ethyl)acetamide]	< 100
C#CCNC(=O)CNC(=O)CN(C1CCN([C@H](C)c2cccc3ccccc23)CC1)S(=O)(=O)CCC(N)=O [Compound 133, (R)-3-(N-(1-(1-(naphthalen-1-yl)ethyl)piperidin-4-yl)-N-(2-oxo-2-((2-oxo-2-(prop-2-yn-1-ylamino)ethyl)amino)ethyl)sulfamoyl)propanamide]	< 100
COC(=O)/C=C/CNC(=O)CNC(=O)CN(C)C1CCN([C@H](C)c2cccc3ccccc23)CC1 [Compound 25, methyl (R,E)-4-(2-(2-(methyl(1-(1-(naphthalen-1-yl)ethyl)piperidin-4-yl)amino)acetamido)acetamido)but-2-enoate]	< 100
C#CCNC(=O)CNC(=O)CN(C1CCN(C(C)c2cc(Cl)ccc2Cl)CC1)S(C)(=O)=O (stereo not drawn) [Compound 140, 2-(N-(1-(1-(2,5-dichlorophenyl)ethyl)piperidin-4-yl)methylsulfonamido)-N-(2-oxo-2-(prop-2-yn-1-ylamino)ethyl)acetamide]	100 to 1000
C#CCNC(=O)CNC(=O)CN(C1CCN(C2(c3cccc4ccccc34)CC2)CC1)S(C)(=O)=O [Compound 105, 2-(N-(1-(1-(naphthalen-1-yl)cyclopropyl)piperidin-4-yl)methylsulfonamido)-N-(2-oxo-2-(prop-2-yn-1-ylamino)ethyl)acetamide]	1000 to 10000
C#CCNC(=O)CNC(=O)CN(C1CCN(C(C)c2cccc3ccccc23)CC1)S(=O)(=O)CCC(=O)OC (stereo not drawn) [Compound 131, methyl 3-(N-(1-(1-(naphthalen-1-yl)ethyl)piperidin-4-yl)-N-(2-oxo-2-((2-oxo-2-(prop-2-yn-1-ylamino)ethyl)amino)ethyl)sulfamoyl)propanoate]	< 100
COC(=O)/C=C/CNC(=O)CNC(=O)CN(C(=O)C1CCC1)C1CCN(C(C)c2cccc3ccccc23)CC1 (stereo not drawn) [Compound 6, methyl (E)-4-(2-(2-(N-(1-(1-(naphthalen-1-yl)ethyl)piperidin-4-yl)cyclobutanecarboxamido)acetamido)acetamido)but-2-enoate]	< 100
COC(=O)/C=C/CNC(=O)CNC(=O)C[C@H](NCc1ccc2c(c1)OCO2)C1CCN(C(C)c2cccc3ccccc23)CC1 (stereo partly drawn) [Compound 29, methyl (E)-4-(2-((3S)-3-((benzo[d][1,3]dioxol-5-ylmethyl)amino)-3-(1-(1-(naphthalen-1-yl)ethyl)piperidin-4-yl)propanamido)acetamido)but-2-enoate]	100 to 1000
C#CCNC(=O)CNC(=O)CN(C1CCN(c2nc3ccccc3s2)CC1)S(C)(=O)=O [Compound 119, 2-(N-(1-(benzo[d]thiazol-2-yl)piperidin-4-yl)methylsulfonamido)-N-(2-oxo-2-(prop-2-yn-1-ylamino)ethyl)acetamide]	100 to 1000
COC(=O)/C=C/CNC(=O)CNC(=O)CN(C(=O)C1CCC1)C1CCN([C@H](C)c2cccc3ccccc23)CC1 [Compound 7, methyl (R,E)-4-(2-(2-(N-(1-(1-(naphthalen-1-yl)ethyl)piperidin-4-yl)cyclobutanecarboxamido)acetamido)acetamido)but-2-enoate]	100 to 1000
CC(c1cccc2ccccc12)N1CCC(N(CC(=O)NCC(=O)NCC#N)S(C)(=O)=O)CC1 (stereo not drawn) [Compound 114, N-(cyanomethyl)-2-(2-(N-(1-(1-(naphthalen-1-yl)ethyl)piperidin-4-yl)methylsulfonamido)acetamido)acetamide]	1000 to 10000
C#CCNC(=O)CNC(=O)CN(C1CCN(C(C)c2ccc(OC)cc2Cl)CC1)S(C)(=O)=O (stereo not drawn) [Compound 139, 2-(N-(1-(1-(2-chloro-4-methoxyphenyl)ethyl)piperidin-4-yl)methylsulfonamido)-N-(2-oxo-2-(prop-2-yn-1-ylamino)ethyl)acetamide]	100 to 1000
COC(=O)/C=C/CNC(=O)CNC(=O)CN(C(=O)CC(C)C)C1CCN([C@H](C)c2cccc3ccccc23)CC1 [Compound 19, methyl (R,E)-4-(2-(2-(3-methyl-N-(1-(1-(naphthalen-1-yl)ethyl)piperidin-4-yl)butanamido)acetamido)acetamido)but-2-enoate]	< 100
C#CCNC(=O)CNC(=O)CN(C1CCN([C@@H](C)c2cccc3ccccc23)CC1)S(=O)(=O)N1CCCC1 [Compound 91, (S)-2-(N-(1-(1-(naphthalen-1-yl)ethyl)piperidin-4-yl)pyrrolidine-1-sulfonamido)-N-(2-oxo-2-(prop-2-yn-1-ylamino)ethyl)acetamide]	< 100
COC(=O)/C=C/CNC(=O)CNC(=O)CN(C(=O)CC(F)(F)F)C1CCN(C(C)c2cccc3ccccc23)CC1 (stereo not drawn) [Compound 16, methyl (E)-4-(2-(2-(3,3,3-trifluoro-N-(1-(1-(naphthalen-1-yl)ethyl)piperidin-4-yl)propanamido)acetamido)acetamido)but-2-enoate]	100 to 1000
C#CCNC(=O)CCNC(=O)CN(C1CCN([C@H](C)c2cccc3ccccc23)CC1)S(C)(=O)=O [Compound 57, (R)-3-(2-(N-(1-(1-(naphthalen-1-yl)ethyl)piperidin-4-yl)methylsulfonamido)acetamido)-N-(prop-2-yn-1-yl)propanamide]	100 to 1000
C#CCNC(=O)CNC(=O)CN(C1CCN(C(C)c2ccc3ccccc3c2)CC1)S(C)(=O)=O (stereo not drawn) [Compound 110, 2-(N-(1-(1-(naphthalen-2-yl)ethyl)piperidin-4-yl)methylsulfonamido)-N-(2-oxo-2-(prop-2-yn-1-ylamino)ethyl)acetamide]	< 100
C#CCNC(=O)CNC(=O)CN(C1CCN(C(C)c2ccccc2C(F)(F)F)CC1)S(C)(=O)=O (stereo not drawn) [Compound 102, N-(2-oxo-2-(prop-2-yn-1-ylamino)ethyl)-2-(N-(1-(1-(2-(trifluoromethyl)phenyl)ethyl)piperidin-4-yl)methylsulfonamido)acetamide]	100 to 1000
[2H]C([2H])([2H])C(c1cccc2ccccc12)N1CCC(N(CC(=O)NCC(=O)NCC#C)S(C)(=O)=O)CC1 (stereo not drawn) [Compound 151, 2-(N-(1-(1-(naphthalen-1-yl)ethyl-2,2,2-d3)piperidin-4-yl)methylsulfonamido)-N-(2-oxo-2-(prop-2-yn-1-ylamino)ethyl)acetamide]	< 100
